Earlier results as cited in patent US20250120988A1, “SMALL MOLECULE COMPOUND FOR TREATING ISCHEMIC STROKE, ITS PREPARATION METHOD, AND APPLICATION” (SHANGHAI SIXTH PEOPLE'S HOSPITAL, priority 2023, published 2025).

Experiments:
ischemic stroke patients = details: clinical trials; cited from earlier work
NMDARs = details: competitive antagonist of NMDARs; read-out: half-blocking dose (IC50) on NMDARs; cited from earlier work
[1] = cited from earlier work

## O=C(O)[C@@H]1C[C@H](CP(=O)(O)O)CCN1 (racemic) [Selfotel]
Ischemic stroke patients
  patient mortality compared to the control group: did not significantly reduce patient mortality
  psychiatric symptoms in patients: led to various psychiatric symptoms in patients
NMDARs
  IC50: < 1 µM
[1]
  solubility in water: highly soluble in water
